# Source: patent US10799501B2, “Combination of an inhibitor of PARP with an inhibitor of GSK-3 or DOT1L” (King's College London, priority 2015, dated 2020)
# How the values were obtained:
# [1] = tested on: PML-RARα transformed cells; assay: In vitro drug treatment of primary murine hematopoietic cells transformed by PML-RARα (RTTA); assay type: cell-based, mouse
# Method: Transduction using concentrated viral supernatant expressing the oncogene of interest was carried out by centrifugation (spinoculation) at 800 g at 32° C. for 2 hours in the presence of 5 μg ml^-1 polybrene (Sigma-Aldrich). Cells were subsequently plated in 1% methylcellulose medium ([…]; Stem Cell Technologies) containing 20 ngml^-1 SCF, 10 ngml^-1 IL-3, 10 ngml^-1 IL-6 and 10 ngml^-1 granulocyte macrophage colony-stimulating factor (GM-CSF) and appropriate selection antibiotic. Colonies were counted after 7 days of culture and replated every 6-7 days at 5×103-1.5×10^4 cell density. Re-plating was performed weekly to generate primary cell lines for further analysis. After the third or fourth round of plating, cells were cultured in R20/20 medium (RPMI 1640, 20% FCS, 20% WEHI-conditioned medium, 2 mM L-glutamine, 100 U/ml penicillin, and 100 μg/ml streptomycin) supplemented with 20 ngml^-1 stem cell factor (SCF), 10 ngml^-1 interleukin (IL)-3, and 10 ngml^-1 IL-6 to establish cell lines. All recombinant murine cytokines were from PeprotechEC. […] Colonies were scored 6-7 days after plating. For other in vitro studies, mouse leukemic cells and primary AML cell lines were subjected to continuously Olaparib (1 μM) or LiCl (8 mM) treatment in liquid culture for whole duration as indicated in the figures or figure legends. For human leukemic cell lines, experiments were performed as described above with 5 μM Olaparib. For each assay 1×10^5 cells were collected, washed in PBS and re-suspended in Annexin V binding solution (25 mM Hepes, 140 mM KCl, 2.5 mM CaCl2 pH 7.2). After centrifugation at 500 g for five minutes the cells were incubated with the Annexin V Binding solution containing 0.25 ug/ml mouse anti Annexin V-FITC antibody (Biolegend 640906) and 1 ug/ml propidium iodide in the dark for 30 minutes at 4° C. Samples were then washed in PBS analysed at the FACS LSRII (BD Biosciences Pharmingen) with FACS Diva. Cells were cytospun onto a glass slide at 400 g for 5 minutes and then fixed for 10 minutes with 2% formaldehyde/0.2% glutaraldehyde (Sigma Aldrich). Cells were then washed with PBS, and then incubated at 37° C. for at least 2 hours with a staining solution (30 mM Citric Acid/Phosphate buffer, 5 mM K4Fe(CN)6, 5 mM K3Fe(CN)6, 150 mM NaCl, 2 mM MgCl2, 1 mg/ml X-Gal) (All reagents from Sigma-Aldrich)62. Cells were counted in at least 5 fields for each slide, for a total of over 100 cells. The percentage of senescent cells was calculated by the percentage of the number of blue cell in the field. Cells were cytospun onto a glass slide at 400 g for 5 minutes and then fixed for 30 minutes in 4% PFA and permeabilized and blocked in 0.8% Tx-100, 10% FBS/1% BSA (Sigma-Aldrich) in PBS for 15 min at room temperature. Mouse anti mouse γH2AX ([…]) (Upstate clone JBW301#05-636) and rabbit anti mouse RAD51 (Santa Cruz Biotecnology […]# sc-8349) were diluted in TBS containing 10% FBS/1% BSA and incubated overnight at 4C. […] Slides were then washed five times at 10 min each with PBS. Slides were briefly washed in water and air-dried prior to mounting with Mowiol-DABCO and a coverslip. Cells were counted in at least 5 fields for each slide, for a total of over 100 cells per condition. 1×10^5 cells were cytospun for 5 min at 300 g onto glass slides. Slides were then stained with May-Grunwald solution (Sigma-Aldrich) for 3 min at room temperature. After washing in water, they were incubated for 20 min in Giemsa solution (Sigma-Aldrich) (1:20 in water). Slides were washed again in water before being mounted with Mowiol. Cells were counted in at least 5 fields for each slide, for a total of over 100 cells per condition. NBT reduction assay were performed to determine myeloid differentiation. 0.1% of NBT (final concentration) was added to the liquid culture or semi-solid methocult and incubated at 37° C. CO2 incubator for 3 hrs and 12 hrs, respectively. […]
# NB4-LR2 (PML-RARα) = assay: In vitro PARPi treatment of human leukemic cell line NB4-LR2; assay type: cell-based
# Method: NB4-LR2 and THP1 cell lines (kindly provided by Dr Arthur Zelent and Professor Mel Greaves respectively) were cultured in RPMI (Invitrogen) supplemented with 10% selected FBS (R10), 2 mM L-Glutamine. Kasumi cell line (kindly provided by Dr Olaf Heidenreich) was cultured in RPMI-Hepes modified (Sigma) supplemented with 20% selected FBS and 2 mM L-[…]). Cell lines were validated by qPCR for their respective oncogenes. NIH3T3 and GP2 cell line was cultured in DMEM (Invitrogen) supplemented with 10% selected FBS and 2 mM L-Glutamine. Human primary AML cells were cultured in IMEM (Invitrogen) supplemented with […], 2 mM L-Glutamine, 10 ng/mL each of human cytokines, IL3, IL6, SCF, FLT3 ligand, and TPO. Cells were kept at 37° C. and 5% CO2. Use of human primary cells was approved by King's College London committee and consents of the patients were obtained. […] Colonies were scored 6-7 days after plating. […] Samples were then washed in PBS analysed at the FACS LSRII (BD Biosciences Pharmingen) with FACS Diva. […] Cells were counted in at least 5 fields for each slide, for a total of over 100 cells. The percentage of senescent cells was calculated by the percentage of the number of blue cell in the field.
smiles,measurement,setting,value
"O=C(c1cc(Cc2n[nH]c(=O)c3ccccc23)ccc1F)N1CCN(C(=O)C2CC2)CC1 [Olaparib, 4-[(3-[(4-cyclopropylcarbonyl)piperazin-4-yl]carbonyl)-4-fluorophenyl]methyl(2H)-phthalazin-1-one]",suppression of colony forming ability,"[1]; 1 uM Olaparib, methylcellulose 7 days, p<0.001",about 90%
same,apoptosis (Annexin V/PI),[1]; PARPi 24 hrs and 48 hrs,induced apoptosis
same,senescence (β-galactosidase staining),[1]; PARPi 24 hrs and 48 hrs,underwent significant senescence
same,Rad51 recruitment to DNA damage sites (RAD51 foci),[1]; PARPi treatment for 6 hours,no significant Rad51 recruitment
same,percentage of differentiation (morphology and NBT reduction),[1]; time course PARPi treatment,significantly increased the percentage of differentiation
same,cells with γH2AX and Rad51 foci ratio greater than 2,[1]; upon PARPi treatment,around 80%
same,senescence and apoptosis,NB4-LR2 (PML-RARα); PARPi 72 hrs / 4 days,effectively induce senescence and apoptosis
same,colony forming ability,"NB4-LR2 (PML-RARα); methylcellulose 7 days, 5 μM Olaparib",reduced the colony forming ability
